Measurements taken from paper PMC11019550, “Potent Inhibition of E. coli DXP Synthase by a gem-Diaryl Bisubstrate Analog” (ACS Infectious Diseases, 2024).
pIC50: −log10 of the molar value.

Target: T1, wildtype EcDXPS (Escherichia coli, UniProt P77488)
T1 construct: made in house
Experiment: IC50 determination for 8 on wildtype EcDXPS (DXPS-IspC coupled assay)
Type: biochemical
Experimental: EcDXPS and IspC were preincubated with inhibitor for 10 min at 25 °C in assay reaction buffer (100 mM HEPES pH 8, 2 mM MgCl2, 5 mM NaCl, 1 mM ThDP, and 200 μM NADPH). Enzyme concentrations for variants were as follows: 200 nM DXPS (wildtype EcDXPS) and 4 μM IspC; 400 nM DXPS (R99A and R478A EcDXPS) and 6 μM IspC. The reaction was initiated by the addition of substrates at final concentrations of 2 × Km pyruvate and 10 × KmD-GAP. NADPH consumption was monitored at 340 nm for 10 min at 25 °C. The initial rate of NADPH consumption was used to determine the initial rate of DXP formation catalyzed by DXPS. Experiments were performed in triplicate and error bars represented standard error.

T1 sequence (P77488 whole entry): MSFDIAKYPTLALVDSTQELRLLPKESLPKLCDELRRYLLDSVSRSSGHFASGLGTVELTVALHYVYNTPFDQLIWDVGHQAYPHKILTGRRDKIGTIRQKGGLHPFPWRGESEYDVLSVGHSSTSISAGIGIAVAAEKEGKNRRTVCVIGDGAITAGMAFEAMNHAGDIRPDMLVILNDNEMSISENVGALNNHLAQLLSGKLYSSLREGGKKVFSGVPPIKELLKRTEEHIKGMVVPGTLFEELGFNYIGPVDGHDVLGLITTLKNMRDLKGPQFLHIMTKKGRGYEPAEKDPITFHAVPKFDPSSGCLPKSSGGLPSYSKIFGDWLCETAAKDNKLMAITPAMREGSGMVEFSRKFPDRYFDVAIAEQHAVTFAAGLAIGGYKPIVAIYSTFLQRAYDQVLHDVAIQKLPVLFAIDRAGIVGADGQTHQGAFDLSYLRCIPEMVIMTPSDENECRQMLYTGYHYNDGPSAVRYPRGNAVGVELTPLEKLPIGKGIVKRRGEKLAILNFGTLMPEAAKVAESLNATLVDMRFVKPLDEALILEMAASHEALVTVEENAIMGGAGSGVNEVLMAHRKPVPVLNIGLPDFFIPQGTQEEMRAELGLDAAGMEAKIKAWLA

For `CC(=O)P(=O)(O)OCCc1cn(C(Cc2ccccc2)(Cc2ccccc2)C(=O)O)nn1` [Compound 8], the pIC50 was no less than 7.14 and the “concentration required for 21% inhibition of DXPS” value (2 × Km pyruvate) was “less than 15.6 nM”.
